Test results: patent US4442044A, “Process for preparing monoesters and diesters of N-alkyl substituted amino methyl phosphonic acid” (priority 1983, dated 1984)

Key:
Experiment in all cases: post-emergent herbicidal activity, greenhouse
Type in all cases: in vivo
Smartweed = conditions: 2 WAT
Text: (§1) A good grade of top soil is placed in aluminum pans having holes in the bottom and compacted to a depth of 0.95 to 1.27 cm. from the top of the pan. A predetermined number of seeds of each of several dicotyledonous and monocotyledonous annual plant species and/or vegetative propagules for the perennial plant species were placed on the soil and pressed into the soil surface. The seeds and/or vegetative propagules are covered with soil and leveled. The pans are then placed on a sand bench in the greenhouse and watered from below as needed. After the plants reach the desired age (two to three weeks), each pan except for the control pans is removed individually to a spraying chamber and sprayed by means of an atomizer operating at a positive air pressure of approximately 1.46 kg/cm^2 absolute. The atomizer contains 6 ml. of a solution or suspension of the chemical. In that 6 ml., is an amount of a cyclohexanone emulsifying agent mixture to give a spray solution or suspension which contains about 0.4% by weight of the emulsifier. The spray solution or suspension contains a sufficient amount of the candidate chemical in order to give application rates corresponding to those set forth in the tables. The spray solution is prepared by taking an aliquot of a 1.0% by weight stock solution or suspension of the candidate chemical in an organic solvent such as acetone or tetrahydrofuran or in water. The emulsifying agent employed is a mixture comprising 35 weight percent butylamine dodecylbenzene sulfonate and 65 weight percent of a tall oil ethylene oxide condensate having about 11 moles of ethylene oxide per mole of tall oil. The pans are returned to the greenhouse and watered as before and the injury to the plants as compared to the control is observed at approximately two and four weeks as indicated in the tables under WAT and the results recorded. In some instances, the two-week observations are omitted.
(§2) The post-emergent herbicidal activity index used in Tables I and II is as follows: […]

Downy Brome = conditions: 2 WAT
Text: as §1, §2

Johnsongrass = conditions: Table I, 2 WAT
Text: as §1, §2

Soybean = conditions: Table II, 2 WAT
Text: as §1, §2

Yellow Nutsedge = conditions: Table I, 2 WAT
Text: as §1, §2

Wild Buckwheat = conditions: Table II, 2 WAT
Text: as §1, §2

Crabgrass = conditions: Table II, 2 WAT
Text: as §1, §2

Rice = conditions: Table II, 2 WAT
Text: as §1, §2

Velvetleaf = conditions: 2 WAT
Text: as §1, §2

Lambsquarters = conditions: 2 WAT
Text: as §1, §2

Barnyardgrass = conditions: 2 WAT
Text: as §1, §2

Panicum Spp = conditions: Table II, 2 WAT
Text: as §1, §2

Sorghum = conditions: Table II, 2 WAT
Text: as §1, §2

Morningglory = conditions: 2 WAT
Text: as §1, §2

Quackgrass = conditions: Table I, 2 WAT
Text: as §1, §2

Hemp Sesbania = conditions: Table II, 2 WAT
Text: as §1, §2

Canada Thistle = conditions: Table I, 2 WAT
Text: as §1, §2

Sugar Beet = conditions: Table II, 2 WAT
Text: as §1, §2

Wheat = conditions: Table II, 2 WAT
Text: as §1, §2

Cocklebur = conditions: 2 WAT
Text: as §1, §2

Measured: post-emergent herbicidal activity index

CCOC(=O)CNCP(=O)(OCC(=O)OCC)OCC(=O)OCC [Example 13, glycine, N-[bis(ethoxycarbonylmethoxy)phosphinylmethyl]-, ethyl ester]
1 (25-49% control): Smartweed; Table II, 5.6 kg/h | Soybean; 5.6 kg/h | Velvetleaf; Table II, 5.6 kg/h | Barnyardgrass; Table II, 5.6 kg/h | Sorghum; 5.6 kg/h | Morningglory; Table I, 11.2 kg/h | Morningglory; Table II, 5.6 kg/h | Quackgrass; 5.6 kg/h | Hemp Sesbania; 1.12 kg/h | Cocklebur; Table II, 5.6 kg/h
3 (75-99% control): Crabgrass; 5.6 kg/h
0 (0-24% control): Smartweed; Table I, 5.6 kg/h | Smartweed; Table I, 11.2 kg/h | Smartweed; Table II, 0.28 kg/h | Smartweed; Table II, 1.12 kg/h | Downy Brome; Table I, 5.6 kg/h | Downy Brome; Table I, 11.2 kg/h | Downy Brome; Table II, 0.28 kg/h | Downy Brome; Table II, 1.12 kg/h | Downy Brome; Table II, 5.6 kg/h | Johnsongrass; 5.6 kg/h | Johnsongrass; 11.2 kg/h | Soybean; 0.28 kg/h | Soybean; 1.12 kg/h | Yellow Nutsedge; 5.6 kg/h | Yellow Nutsedge; 11.2 kg/h | Wild Buckwheat; 0.28 kg/h | Wild Buckwheat; 1.12 kg/h | Wild Buckwheat; 5.6 kg/h | Crabgrass; 0.28 kg/h | Crabgrass; 1.12 kg/h | Rice; 0.28 kg/h | Rice; 1.12 kg/h | Rice; 5.6 kg/h | Velvetleaf; Table I, 5.6 kg/h | Velvetleaf; Table I, 11.2 kg/h | Velvetleaf; Table II, 0.28 kg/h | Velvetleaf; Table II, 1.12 kg/h | Lambsquarters; Table I, 11.2 kg/h | Lambsquarters; Table II, 1.12 kg/h | Barnyardgrass; Table I, 5.6 kg/h | Barnyardgrass; Table I, 11.2 kg/h | Barnyardgrass; Table II, 0.28 kg/h | Barnyardgrass; Table II, 1.12 kg/h | Panicum Spp; 0.28 kg/h | Panicum Spp; 1.12 kg/h | Panicum Spp; 5.6 kg/h | Sorghum; 0.28 kg/h | Sorghum; 1.12 kg/h | Morningglory; Table I, 5.6 kg/h | Morningglory; Table II, 0.28 kg/h | Morningglory; Table II, 1.12 kg/h | Quackgrass; 11.2 kg/h | Hemp Sesbania; 0.28 kg/h | Canada Thistle; 5.6 kg/h | Canada Thistle; 11.2 kg/h | Sugar Beet; 0.28 kg/h | Sugar Beet; 1.12 kg/h | Sugar Beet; 5.6 kg/h | Wheat; 0.28 kg/h | Wheat; 1.12 kg/h | Cocklebur; Table I, 5.6 kg/h | Cocklebur; Table I, 11.2 kg/h | Cocklebur; Table II, 0.28 kg/h | Cocklebur; Table II, 1.12 kg/h
2 (50-74% control): Wheat; 5.6 kg/h
